Laboratory results as given in paper PMC10094543 (International Journal of Molecular Sciences, 2023).
Several values for one entry are separate records, joined by “and”; a condition that tells them apart may be missing. Equal entries are not always repeated. Where two headings read alike, the source gives them in different places.

Columns and labels:
NgBCCP = type: biochemical, Neisseria gonorrhoeae
N. europaea BCCP = details: pH 7; cited from earlier work
[1] = target: mixed-valence NgBCCP (P heme); details: read-out: Kapp (apparent dissociation constant); pH 6
P. aeruginosa BCCP = details: cited from earlier work
[2] = target: T1, NgBCCP (Neisseria gonorrhoeae bacterial peroxidase) (Neisseria gonorrhoeae, UniProt Q5F5Z9); assay: steady-state kinetics, ABTS oxidation at […] nm; type: biochemical
T1 construct: gene NGO_1769; globular domain only (lipid anchor and AAEAP linker absent), pelB signal peptide, C-terminal His-tag; E. coli BL21(DE3) with pEC86; 38 kDa; di-heme c; Ca-dependent monomer/dimer equilibrium, dimer in crystal
T1 sequence (Q5F5Z9 59-387): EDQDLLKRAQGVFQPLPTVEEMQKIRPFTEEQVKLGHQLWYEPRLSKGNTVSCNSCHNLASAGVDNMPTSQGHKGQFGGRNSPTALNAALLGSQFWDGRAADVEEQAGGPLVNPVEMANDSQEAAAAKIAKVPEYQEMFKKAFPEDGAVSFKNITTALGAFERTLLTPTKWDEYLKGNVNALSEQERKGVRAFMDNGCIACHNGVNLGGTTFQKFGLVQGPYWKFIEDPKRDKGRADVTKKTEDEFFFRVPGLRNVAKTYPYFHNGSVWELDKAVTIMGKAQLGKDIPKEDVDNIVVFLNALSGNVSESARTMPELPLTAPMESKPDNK

Row | Compound | Vmax app (NgBCCP) | a (α) (NgBCCP) | b (β) (NgBCCP) | mechanism of inhibition (NgBCCP; pH 7.5) | Ki (N. europaea BCCP) [mM] | Kd [1] [mM] | inhibition mechanism (P. aeruginosa BCCP) | Ki (P. aeruginosa BCCP; pH 6) [mM] | mechanism of inhibition (NgBCCP) | Ki (NgBCCP; pH 7.5) [mM] | Ki [2] [mM]
1 | azide | 0.56 ± 0.003 µM/s and 0.53 ± 0.004 µM/s and 0.71 ± 0.001 µM/s and 0.66 ± 0.010 µM/s and 0.59 ± 0.001 µM/s | 2.4 | 0.0 | non-competitive/partially competitive | 4.7 | 3.8 | non-competitive | 3.1 | – | – | –
2 | c1c[nH]cn1 [imidazole] | 0.55 ± 0.01 µM/s and 0.49 ± 0.01 µM/s and 0.48 ± 0.01 µM/s and 0.65 ± 0.01 µM/s and 0.44 ± 0.02 µM/s and 0.63 ± 0.04 µM/s and 0.58 ± 0.02 µM/s | 2.8 | 0.0 | non-competitive/partially competitive | – | – | – | – | partially uncompetitive | 9 ± 4 | 9 ± 4
